Experimental data reported in ChEMBL document CHEMBL1127558, “Synthesis and characterization of selective fluorescent ligands for the neurokinin NK2 receptor” (J Med Chem, 1994).
Numbered stars: 1 amine (or outer) side, 2 acyl side, 3 side chain; on linkers, the order of the positions; unused ones are H or OH. Square brackets hold non-standard residues; d marks the D form. Peptide text beside a SMILES is read from it. * marks the point of attachment. X1 = C[C@@H](C(=O)[*:2])N(c1ccc([N+](=O)[O-])c2nonc12)[*:1]; Nle = CCCC[C@H](N)C(=O)O; Bz = O=C(c1ccccc1)*

Target: T1, Substance-K receptor (Homo sapiens, UniProt P21452)
T1 sequence (P21452 whole entry): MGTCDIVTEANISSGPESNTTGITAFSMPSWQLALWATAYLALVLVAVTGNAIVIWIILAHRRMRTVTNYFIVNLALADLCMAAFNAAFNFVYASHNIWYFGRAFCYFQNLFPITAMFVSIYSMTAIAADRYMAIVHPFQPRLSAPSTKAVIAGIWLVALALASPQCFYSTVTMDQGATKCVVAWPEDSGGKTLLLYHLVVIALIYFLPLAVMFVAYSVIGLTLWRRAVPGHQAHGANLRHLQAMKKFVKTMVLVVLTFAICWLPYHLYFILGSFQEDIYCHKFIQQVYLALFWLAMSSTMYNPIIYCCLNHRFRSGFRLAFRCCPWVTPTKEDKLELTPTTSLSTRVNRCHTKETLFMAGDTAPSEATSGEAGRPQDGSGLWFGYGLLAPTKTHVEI
Assay: Binding affinity against human NK2 receptors expressed in CHO cells using [3H]GR-100679 as radioligand
Assay type: cell-based

**Q.** For CCCC[C@H](NC(=O)[C@@H]1CCCN1C(=O)[C@@H]1CCCN1C(=O)[C@H](Cc1ccccc1)NC(=O)[C@H](Cc1c[nH]c2ccccc12)NC(=O)[C@H](C)NC(=O)[C@H](C)Nc1ccc([N+](=O)[O-])c2nonc12)C(N)=O (H-[X1]AWFPP[Nle]-NH2), which Ki is on record?
**A.** 87.1 nM

**Q.** For CCCC[C@H](NC(=O)[C@@H]1CCCN1C(=O)[C@@H]1CCCN1C(=O)[C@H](Cc1ccccc1)NC(=O)[C@H](Cc1c[nH]c2ccccc12)NC(=O)[C@H](C)NC(=O)[C@H](C)NC(=O)c1ccccc1)C(N)=O (Bz-AAWFPP[Nle]-NH2), which Ki is on record?
**A.** 0.155 nM

**Q.** For CCCC[C@H](NC(=O)[C@@H]1CCCN1C(=O)[C@H]1CCCN1C(=O)[C@H](Cc1ccccc1)NC(=O)[C@@H](Cc1c[nH]c2ccccc12)NC(=O)[C@H](C)NC(=O)[C@H](C)/N=C(/S)Nc1ccc2c(c1)C(=O)OC21c2ccc(O)cc2Oc2cc(O)ccc21)C(N)=O, which “Log Ki” value (cho) is on record?
**A.** -5.99

**Q.** Which Ki does the source give for CCCC[C@H](NC(=O)[C@@H]1CCCN1C(=O)[C@H]1CCCN1C(=O)[C@H](Cc1ccccc1)NC(=O)[C@@H](Cc1c[nH]c2ccccc12)NC(=O)[C@H](C)NC(=O)[C@H](CCCCNC(=S)Nc1ccc2c(c1)C(=O)OC21c2ccc(O)cc2Oc2cc(O)ccc21)NC(=O)c1ccccc1)C(N)=O here?
**A.** 24.5 nM
